Measurements as given in ChEMBL document CHEMBL3400026, “Synthesis of novel 24-amino-25,26,27-trinorlanost-8-enes: cytotoxic and apoptotic potential in U937 cells” (Bioorg Med Chem, 2015).
Active and inactive are the calls of the source. The rule behind the calls is not given here.

How the values were obtained:
[1] = Cytotoxicity against human U937 cells after 24 hrs by MTT assay; assay type: functional, cell-based; conditions: U-937, 24 h
U-937 [2] = experiment: Induction of apoptosis in human U937 cells assessed as caspase 3/7 level at 25 ug/ml after 24 hrs by Caspase-Glo 3/7 assay relative to solvent control; assay type: functional
U-937 [3] = experiment: Induction of apoptosis in human U937 cells assessed as caspase 3/7 level at 10 ug/ml after 24 hrs by Caspase-Glo 3/7 assay relative to solvent control; assay type: functional
U-937 [4] = experiment: Induction of apoptosis in human U937 cells assessed as DNA fragmentation measured as DNA laddering at 10 ug/ml after 24 hrs by agarose gel electophoresis relative to solvent control; assay type: functional, cell-based
U-937 [5] = experiment: Induction of apoptosis in human U937 cells assessed as condensed/fragmented nuclei at 25 ug/ml after 24 hrs using Hoechst 33342 staining by microscopy relative to solvent control; assay type: functional
U-937 [6] = experiment: Induction of apoptosis in human U937 cells assessed as condensed/fragmented nuclei at 10 ug/ml after 24 hrs using Hoechst 33342 staining by microscopy relative to solvent control; assay type: functional
U-937 [7] = experiment: Induction of apoptosis in human U937 cells assessed as caspase 3/7 level at 5 ug/ml after 24 hrs by Caspase-Glo 3/7 assay relative to solvent control; assay type: functional
U-937 [8] = experiment: Induction of apoptosis in human U937 cells assessed as DNA fragmentation measured as DNA laddering at 5 ug/ml after 24 hrs by agarose gel electophoresis relative to solvent control; assay type: functional, cell-based
U-937 [9] = experiment: Induction of apoptosis in human U937 cells assessed as condensed/fragmented nuclei at 5 ug/ml after 24 hrs using Hoechst 33342 staining by microscopy relative to solvent control; assay type: functional
U-937 [10] = experiment: Induction of apoptosis in human U937 cells assessed as caspase 3/7 level at 50 ug/ml after 24 hrs by Caspase-Glo 3/7 assay relative to solvent control; assay type: functional
U-937 [11] = experiment: Induction of apoptosis in human U937 cells assessed as condensed/fragmented nuclei at 50 ug/ml after 24 hrs using Hoechst 33342 staining by microscopy relative to solvent control; assay type: functional
U-937 [12] = experiment: Induction of apoptosis in human U937 cells assessed as DNA fragmentation measured as DNA laddering at 25 ug/ml after 24 hrs by agarose gel electophoresis relative to solvent control; assay type: functional, cell-based
U-937 [13] = experiment: Induction of apoptosis in human U937 cells assessed as caspase 3/7 level at 12 ug/ml after 24 hrs by Caspase-Glo 3/7 assay relative to solvent control; assay type: functional
U-937 [14] = experiment: Induction of apoptosis in human U937 cells assessed as DNA fragmentation measured as DNA laddering at 12 ug/ml after 24 hrs by agarose gel electophoresis relative to solvent control; assay type: functional, cell-based
U-937 [15] = experiment: Induction of apoptosis in human U937 cells assessed as condensed/fragmented nuclei at 12 ug/ml after 24 hrs using Hoechst 33342 staining by microscopy relative to solvent control; assay type: functional

Compound | IC50 [1] | Activity (U-937 [3]) | Activity (U-937 [6]) | Activity (U-937 [7]) | Activity (U-937 [9]) | also measured
C[C@H](CCCNc1ccccc1)[C@H]1CC[C@@]2(C)C3=C(CC[C@]12C)[C@@]1(C)CC[C@H](O)C(C)(C)[C@@H]1CC3 | 132 µM | – | – | – | – | –
CCN(CC)CCC[C@@H](C)[C@H]1CC[C@@]2(C)C3=C(CC[C@]12C)[C@@]1(C)CC[C@H](OC(C)=O)C(C)(C)[C@@H]1CC3 | 16.4 µM | 4.9% | 6.9% | – | – | Activity (U-937 [2]): 7.3%; Activity (U-937 [4]): Active; Activity (U-937 [5]): 6.6%
CC(=O)O[C@H]1CC[C@]2(C)C3=C(CC[C@H]2C1(C)C)[C@]1(C)CC[C@H]([C@H](C)CCCNc2ccccc2)[C@@]1(C)CC3 | 367 µM | – | – | – | – | –
C[C@H](CCCN1CCOCC1)[C@H]1CC[C@@]2(C)C3=C(CC[C@]12C)[C@@]1(C)CC[C@H](O)C(C)(C)[C@@H]1CC3 | 128 µM | – | – | – | – | –
CCN(CC)CCC[C@@H](C)[C@H]1CC[C@@]2(C)C3=C(CC[C@]12C)[C@@]1(C)CC[C@H](O)C(C)(C)[C@@H]1CC3 | 3.5 µM | 2.4% | 3% | 2.3% | 3.7% | Activity (U-937 [8]): Active
CC[N+]([O-])(CC)CCC[C@@H](C)[C@H]1CC[C@@]2(C)C3=C(CC[C@]12C)[C@@]1(C)CC[C@H](OC(C)=O)C(C)(C)[C@@H]1CC3 | 21.1 µM | – | – | – | – | Activity (U-937 [2]): 4.4%; Activity (U-937 [10]): 4.3%; Activity (U-937 [11]): 5%; Activity (U-937 [5]): 7%; Activity (U-937 [12]): Active
C[C@H](CCCN1CCCCC1)[C@H]1CC[C@@]2(C)C3=C(CC[C@]12C)[C@@]1(C)CC[C@H](O)C(C)(C)[C@@H]1CC3 | 1.9 µM | 2.1% | 5.5% | 2% | 7.4% | Activity (U-937 [8]): Active
CC(=O)O[C@H]1CC[C@]2(C)C3=C(CC[C@H]2C1(C)C)[C@]1(C)CC[C@H]([C@H](C)CCCN2CCCCC2)[C@@]1(C)CC3 | 14.9 µM | – | – | – | – | Activity (U-937 [2]): 1.9%; Activity (U-937 [10]): 3.4%; Activity (U-937 [11]): 10.6%; Activity (U-937 [5]): 8.8%; Activity (U-937 [12]): Active
COc1cc([C@@H]2c3cc4c(cc3[C@@H](O[C@@H]3O[C@@H]5CO[C@@H](C)O[C@H]5[C@H](O)[C@H]3O)[C@H]3COC(=O)[C@H]23)OCO4)cc(OC)c1O [ETOPOSIDE] | 1.5 µM | 5.9% | 24.8% | 6.4% | 23.7% | Activity (U-937 [8]): Active
CC(C)CCC[C@@H](C)[C@H]1CC[C@H]2[C@@H]3C(=O)C=C4C[C@@H](O)CC[C@]4(C)[C@H]3CC[C@]12C [7-OXOCHOLESTEROL] | – | – | – | – | – | Activity (U-937 [13]): 2.2%; Activity (U-937 [14]): Active; Activity (U-937 [15]): 7.3%
CC(=O)O[C@H]1CC[C@]2(C)C3=C(CC[C@H]2C1(C)C)[C@]1(C)CC[C@H]([C@H](C)CCCN2CCOCC2)[C@@]1(C)CC3 | 148 µM | – | – | – | – | –
CC(=O)O[C@H]1CC[C@]2(C)C3=C(CC[C@H]2C1(C)C)[C@]1(C)CC[C@H]([C@H](C)CCCN2CCN(CCO)CC2)[C@@]1(C)CC3 | 9.3 µM | 7.8% | 10.2% | 6.6% | 7.3% | Activity (U-937 [4]): Active
C[C@H](CCCN1CCN(CCO)CC1)[C@H]1CC[C@@]2(C)C3=C(CC[C@]12C)[C@@]1(C)CC[C@H](O)C(C)(C)[C@@H]1CC3 | 2.7 µM | 1.3% | 6.6% | 1.2% | 7.6% | –
